Reference: PubChem BioAssay AID328 (DTP/NCI, 2004)
Toxic doses and inconclusive results are not listed.

How the values were obtained:
[1] = tested on: BDF1 mice, P388 leukemia ip, median survival T/C; experiment: NCI In Vivo Anticancer Drug Screen. Data for tumor model P388 Leukemia (intraperitoneal) in B6D2F1 (BDF1) mice; settings: endpoint: median survival time, schedule: Q01DX010 (ip), vehicle: other, higher = longer survival
Method in brief: (§1)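 Compound-treated tumour-bearing mice were compared with vehicle-treated controls. Survival was recorded, and the value is the treated-group measurement divided by the control-group measurement (T/C).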

[2] = tested on: BDF1 mice, P388 leukemia ip; experiment: as above; settings: endpoint: mean survival time, schedule: Q01DX010 (ip), vehicle: carboxymethylcellulose (CMC), higher = longer survival
Method in brief: as §1

SMILES | T/C ([1]; dose: 11.0 mg/kg/injection) | T/C ([1]; dose: 25.0 mg/kg/injection) | T/C ([1]; dose: 50.0 mg/kg/injection) | T/C ([1]; dose: 100.0 mg/kg/injection) | T/C ([2]; dose: 25.0 mg/kg/injection) | T/C ([2]; dose: 18.0 mg/kg/injection)
C/C=C/c1cc2c(c(=O)o1)C(=O)[C@@H](O)[C@H](C)O2 | 120 % of control | 154 % of control | 150 % of control | 150 % of control | 119 % of control | –
CC1(C)C(=O)C(O)=C[C@H]2C1=CC[C@@H]1[C@]2(C)C(=O)C[C@]2(C)[C@@H]([C@@](C)(O)C(=O)CC(O)C(C)(C)O)C(O)C[C@@]12C (stereo partly specified) | – | – | – | – | – | 99 % of control
